Measurements published in ChEMBL document CHEMBL1201862, “PubChem BioAssay data set” (2004).
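Where inhibition never reached the appropriate level, the endpoint shown equals the highest concentration tested. Otherwise, values were interpolated linearly from a five-concentration, 48-hour dose response in 96-well plates. GI50 is the concentration that inhibits growth by half.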 Activity calls are given as the source filed them. Cut-off read from the data, not from the text of the source: active = GI50 up to about 1.1 µM and inactive = higher.

How the values were obtained:
Experiment in all cases: NCI-60 cell line screen, 48 h
[1] = tested on: ACHN
[2] = tested on: EKVX
[3] = tested on: PC-3
[4] = tested on: K562
[5] = tested on: MDA-N
[6] = tested on: HCT-15
[7] = tested on: SK-MEL-28
[8] = tested on: RPMI-8226
[9] = tested on: SK-MEL-2
[10] = tested on: NCI-H23
[11] = tested on: SW-620
[12] = tested on: MDA-MB-435
[13] = tested on: M14
[14] = tested on: Hs-578T
[15] = tested on: COLO 205
[16] = tested on: OVCAR-3
[17] = tested on: SF-295
[18] = tested on: SR
[19] = tested on: SNB-19
[20] = tested on: SF-539
[21] = tested on: CAKI-1
[22] = tested on: UACC-257
[23] = tested on: SK-MEL-5
[24] = tested on: LOX IMVI
[25] = tested on: NCI-H226
[26] = tested on: UO-31
[27] = tested on: OVCAR-4
[28] = tested on: A549
[29] = tested on: DU-145
[30] = tested on: TK-10
[31] = tested on: SN12C
[32] = tested on: NCI-H460
[33] = tested on: HT-29
[34] = tested on: IGROV-1
[35] = tested on: U-251
[36] = tested on: CCRF-CEM
[37] = tested on: SNB-75
[38] = tested on: OVCAR-8
[39] = tested on: BT-549
[40] = tested on: KM12
[41] = tested on: A498
[42] = tested on: RXF 393
[43] = tested on: HL-60
[44] = tested on: HCC 2998
[45] = tested on: HOP-92
[46] = tested on: HOP-62
[47] = tested on: NCI-H522
[48] = tested on: MOLT-4
[49] = tested on: Malme-3M
[50] = tested on: OVCAR-5
[51] = tested on: T47D
[52] = tested on: HCT-116
[53] = tested on: UACC-62
[54] = tested on: NCI/ADR-RES
[55] = tested on: MDA-MB-231
[56] = tested on: SK-OV-3
[57] = tested on: 786-0
[58] = tested on: MCF7
[59] = tested on: SF-268
[60] = tested on: LXFL 529
[61] = tested on: SNB-78
[62] = tested on: DMS-114
[63] = tested on: M19-MEL
[64] = tested on: DMS-273
[65] = tested on: DLD-1
[66] = tested on: KM-20L2

CCOC(=O)Cn1c(=O)c2cc(-c3ccccc3)cc3c(Cl)nc4c(OC)c(OC)cc1c4c32
GI50 [1]: 19.9 µM (inactive)
GI50 [2]: 12.4 µM (inactive)
GI50 [3]: 15.9 µM (inactive)
GI50 [4]: 13.8 µM (inactive)
GI50 [5]: 17.7 µM (inactive)
GI50 [6]: 15 µM
GI50 [7]: 21 µM (inactive)
GI50 [8]: 4.91 µM (inactive)
GI50 [9]: 15 µM (inactive)
GI50 [10]: 15.3 µM (inactive)
GI50 [11]: 17.7 µM (inactive)
GI50 [12]: 17.4 µM (inactive)
GI50 [13]: 15.6 µM (inactive)
GI50 [14]: 6.97 µM (inactive)
GI50 [15]: 50.6 µM (inactive)
GI50 [16]: 20.9 µM (inactive)
GI50 [17]: 40.7 µM (inactive)
GI50 [18]: 1.99 µM (inactive)
GI50 [19]: 19 µM (inactive)
GI50 [20]: 87.5 µM (inactive)
GI50 [21]: 27.2 µM (inactive)
GI50 [22]: 18.6 µM (inactive)
GI50 [23]: 24.7 µM (inactive)
GI50 [24]: 11.6 µM (inactive)
GI50 [25]: > 39.6 µM (inactive)
GI50 [26]: 2.07 µM (inactive)
GI50 [27]: 21.6 µM (inactive)
GI50 [28]: 28 µM (inactive)
GI50 [29]: 21.4 µM (inactive)
GI50 [30]: 31.7 µM (inactive)
GI50 [31]: 16.2 µM (inactive)
GI50 [32]: 17.1 µM (inactive)
GI50 [33]: 13.8 µM (inactive)
GI50 [34]: 13 µM (inactive)
GI50 [35]: 31.2 µM (inactive)
GI50 [36]: 5.16 µM (inactive)
GI50 [37]: 15.3 µM (inactive)
GI50 [38]: 15.6 µM (inactive)
GI50 [39]: 18.5 µM (inactive)
GI50 [40]: 31.6 µM (inactive)
GI50 [41]: 17 µM (inactive)
GI50 [42]: 14.8 µM (inactive)
GI50 [43]: 4.89 µM (inactive)
GI50 [44]: 16.7 µM (inactive)
GI50 [45]: 10.7 µM (inactive)
GI50 [46]: 28.8 µM (inactive)
GI50 [47]: 14.8 µM (inactive)
GI50 [48]: 3.1 µM (inactive)
GI50 [49]: 0.578 µM (active)
GI50 [50]: > 100 µM (inactive)
GI50 [51]: 16 µM (inactive)
GI50 [52]: 13.9 µM (inactive)
GI50 [53]: 14.8 µM (inactive)
GI50 [54]: 16.9 µM (inactive)
GI50 [55]: 17.6 µM (inactive)
GI50 [56]: 43.8 µM (inactive)
GI50 [57]: 14.8 µM (inactive)
GI50 [58]: 9.14 µM (inactive)
GI50 [59]: 9.93 µM (inactive)

CC1C[C@@]2(c3ccccc3)C(=O)CCC[C@H]2N1 (stereo not given in full)
GI50 [1]: > 100 µM (inactive)
GI50 [2]: > 100 µM (inactive)
GI50 [4]: > 100 µM (inactive)
GI50 [7]: > 100 µM (inactive)
GI50 [9]: > 100 µM (inactive)
GI50 [10]: > 100 µM (inactive)
GI50 [11]: > 100 µM (inactive)
GI50 [13]: > 100 µM (inactive)
GI50 [16]: > 100 µM (inactive)
GI50 [17]: > 100 µM (inactive)
GI50 [18]: > 100 µM (inactive)
GI50 [19]: > 100 µM (inactive)
GI50 [20]: > 100 µM (inactive)
GI50 [21]: > 100 µM (inactive)
GI50 [22]: > 100 µM (inactive)
GI50 [23]: > 100 µM (inactive)
GI50 [25]: > 100 µM (inactive)
GI50 [26]: > 100 µM (inactive)
GI50 [60]: > 100 µM (inactive)
GI50 [27]: > 100 µM (inactive)
GI50 [28]: > 100 µM (inactive)
GI50 [30]: > 100 µM (inactive)
GI50 [61]: > 100 µM (inactive)
GI50 [31]: > 100 µM (inactive)
GI50 [32]: > 100 µM (inactive)
GI50 [33]: > 100 µM (inactive)
GI50 [34]: > 100 µM (inactive)
GI50 [35]: > 100 µM (inactive)
GI50 [36]: > 100 µM (inactive)
GI50 [37]: > 100 µM (inactive)
GI50 [62]: > 100 µM (inactive)
GI50 [38]: > 100 µM (inactive)
GI50 [40]: > 100 µM (inactive)
GI50 [41]: > 100 µM (inactive)
GI50 [42]: > 100 µM (inactive)
GI50 [43]: > 100 µM (inactive)
GI50 [45]: 29.6 µM (inactive)
GI50 [46]: > 100 µM (inactive)
GI50 [47]: > 100 µM (inactive)
GI50 [48]: > 100 µM (inactive)
GI50 [49]: 16.9 µM (inactive)
GI50 [63]: > 100 µM (inactive)
GI50 [50]: > 100 µM (inactive)
GI50 [52]: > 100 µM (inactive)
GI50 [53]: > 100 µM (inactive)
GI50 [56]: > 100 µM (inactive)
GI50 [57]: > 100 µM (inactive)
GI50 [64]: > 100 µM (inactive)
GI50 [65]: > 100 µM (inactive)
GI50 [59]: > 100 µM (inactive)
GI50 [66]: > 100 µM (inactive)
